Data reported in article doi:10.1101/2022.06.13.496020v1 (biorxiv, 2022).
pEC50: −log10 of the molar value.

Legend:
Test in all cases: LANCE cAMP accumulation, transfected CHO-K1 cells
Format in all cases: cell-based
[1] = target: TSHR (full-length, 21-764) (Homo sapiens, UniProt P16473, M572A)
[2] = target: TSHR (full-length, 21-764) (Homo sapiens, UniProt P16473, A644F)
[3] = target: TSHR (full-length, 21-764) (Homo sapiens, UniProt P16473, I640A)
[4] = target: TSHR (full-length, 21-764) (Homo sapiens, UniProt P16473)
[5] = target: TSHR (full-length, 21-764) (Homo sapiens, UniProt P16473, V586A)
Chain of TSHR (full-length, 21-764) (Homo sapiens, UniProt P16473, V586A) (P16473 21-764 V586A): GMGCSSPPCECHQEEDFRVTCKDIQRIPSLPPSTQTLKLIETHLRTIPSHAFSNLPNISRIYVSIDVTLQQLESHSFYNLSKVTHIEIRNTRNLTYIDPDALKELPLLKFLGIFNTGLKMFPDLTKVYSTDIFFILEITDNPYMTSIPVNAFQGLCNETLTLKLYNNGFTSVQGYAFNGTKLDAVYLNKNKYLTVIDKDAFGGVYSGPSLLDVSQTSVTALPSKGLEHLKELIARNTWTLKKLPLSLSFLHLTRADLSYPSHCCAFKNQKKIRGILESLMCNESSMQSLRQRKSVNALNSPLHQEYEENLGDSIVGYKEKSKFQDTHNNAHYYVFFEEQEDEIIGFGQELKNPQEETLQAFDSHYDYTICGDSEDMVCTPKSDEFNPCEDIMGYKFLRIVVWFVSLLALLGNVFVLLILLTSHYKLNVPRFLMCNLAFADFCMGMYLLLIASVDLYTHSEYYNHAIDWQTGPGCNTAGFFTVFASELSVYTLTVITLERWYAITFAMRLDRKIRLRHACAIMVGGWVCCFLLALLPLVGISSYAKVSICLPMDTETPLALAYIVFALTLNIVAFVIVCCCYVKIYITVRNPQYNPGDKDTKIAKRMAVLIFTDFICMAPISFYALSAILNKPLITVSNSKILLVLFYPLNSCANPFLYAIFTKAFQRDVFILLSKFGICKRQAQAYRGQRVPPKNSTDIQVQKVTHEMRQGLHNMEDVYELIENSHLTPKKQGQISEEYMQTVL

Chain of TSHR (full-length, 21-764) (Homo sapiens, UniProt P16473, I640A) (P16473 21-764 I640A): as the sequence (P16473 21-764 V586A) above, with A566V, I620A counted along it
Chain of TSHR (full-length, 21-764) (Homo sapiens, UniProt P16473) (P16473 21-764): as the sequence (P16473 21-764 V586A) above, with A566V counted along it
Chain of TSHR (full-length, 21-764) (Homo sapiens, UniProt P16473, A644F) (P16473 21-764 A644F): as the sequence (P16473 21-764 V586A) above, with A566V, A624F counted along it
Chain of TSHR (full-length, 21-764) (Homo sapiens, UniProt P16473, M572A) (P16473 21-764 M572A): as the sequence (P16473 21-764 V586A) above, with M552A, A566V counted along it

- pEC50 [1]: 5.62
- pEC50 [2]: 5.75
- pEC50 [3]: 5.94
- pEC50 [4]: 6.48
- pEC50 [5]: 5.69
Compound: COc1ccc([C@H]2Nc3cccc(O)c3C(=O)N2Cc2ccccc2)cc1COc1ccc(NC(C)=O)cc1 [ML-109]
